Laboratory results from the supplement of paper PMC10307832.

Tests used:
Assay in all cases: relative viability (nuclei count vs DMSO), 5 days (fraction); higher = more cells survive
[1] = tested on: HOP-62
Outline: (§1)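 A single step with final 0.05% Triton X-100, 1% formaldehyde and 1 ug/ml Hoechst fixed the cells and stained nuclei 5 days after treatment. Lung cancer cell lines in 1536-well plates had been treated by pin tool the day after seeding with one drug alone or a fixed anchor-drug dose plus five library-drug doses (not always all listed) in √10 steps, and nuclei were counted on 4× images. Relative viability is the ratio of nuclei in treated wells to nuclei in vehicle wells, taken as the median of duplicate plates.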

[2] = tested on: LXF-289
Outline: as §1

[3] = tested on: LC-2-ad
Outline: as §1

[4] = tested on: NCI-H2342
Outline: as §1

[5] = tested on: HCC-78
Outline: as §1

[6] = tested on: NCI-H1755
Outline: as §1

[7] = tested on: HCC-15
Outline: as §1

[8] = tested on: RERF-LC-KJ
Outline: as §1

[9] = tested on: NCI-H1975
Outline: as §1

[10] = tested on: NCI-H2126
Outline: as §1

[11] = tested on: A-427
Outline: as §1

[12] = tested on: SK-LU-1
Outline: as §1

[13] = tested on: NCI-H1915
Outline: as §1

[14] = tested on: NCI-H358
Outline: as §1

[15] = tested on: SW 1573
Outline: as §1

[16] = tested on: NCI-H2228
Outline: as §1

[17] = tested on: NCI-H1734
Outline: as §1

[18] = tested on: NCI-H1792
Outline: as §1

[19] = tested on: PC-3 [JPC-3]
Outline: as §1

[20] = tested on: NCI-H647
Outline: as §1

[21] = tested on: NCI-H522
Outline: as §1

[22] = tested on: NCI-H2347
Outline: as §1

COc1cc2nccc(Oc3ccc(NC(=O)Nc4cc(C)on4)c(Cl)c3)c2cc1OC [Tivozanib] + Cc1nc(Nc2ncc(C(=O)Nc3c(C)cccc3Cl)s2)cc(N2CCN(CCO)CC2)n1 [Dasatinib] (partner 0.075 µM)
relative viability ([1]; first compound 0.005 µM): 0.638
relative viability ([1]; first compound 0.01581 µM): 0.668
relative viability ([1]; first compound 0.05 µM): 0.633
relative viability ([1]; first compound 0.1581 µM): 0.583
relative viability ([1]; first compound 0.5 µM): 0.698
relative viability ([2]; first compound 0.005 µM): 0.214
relative viability ([2]; first compound 0.01581 µM): 0.203
relative viability ([2]; first compound 0.05 µM): 0.279
relative viability ([2]; first compound 0.1581 µM): 0.264
relative viability ([2]; first compound 0.5 µM): 0.216
relative viability ([3]; first compound 0.005 µM): 0.458
relative viability ([3]; first compound 0.01581 µM): 0.504
relative viability ([3]; first compound 0.05 µM): 0.615
relative viability ([3]; first compound 0.1581 µM): 0.268
relative viability ([3]; first compound 0.5 µM): 0.208
relative viability ([4]; first compound 0.005 µM): 0.301
relative viability ([4]; first compound 0.01581 µM): 0.333
relative viability ([4]; first compound 0.05 µM): 0.326
relative viability ([4]; first compound 0.5 µM): 0.33
relative viability ([5]; first compound 0.005 µM): 0.365
relative viability ([5]; first compound 0.01581 µM): 0.387
relative viability ([5]; first compound 0.05 µM): 0.466
relative viability ([5]; first compound 0.1581 µM): 0.263
relative viability ([5]; first compound 0.5 µM): 0.362
relative viability ([6]; first compound 0.005 µM): 0.356
relative viability ([6]; first compound 0.01581 µM): 0.415
relative viability ([6]; first compound 0.05 µM): 0.432
relative viability ([6]; first compound 0.1581 µM): 0.315
relative viability ([6]; first compound 0.5 µM): 0.383
relative viability ([7]; first compound 0.005 µM): 0.534
relative viability ([7]; first compound 0.01581 µM): 0.579
relative viability ([7]; first compound 0.05 µM): 0.621
relative viability ([7]; first compound 0.1581 µM): 0.67
relative viability ([7]; first compound 0.5 µM): 0.607
relative viability ([8]; first compound 0.005 µM): 0.799
relative viability ([8]; first compound 0.01581 µM): 0.887
relative viability ([8]; first compound 0.05 µM): 0.788
relative viability ([8]; first compound 0.1581 µM): 0.856
relative viability ([8]; first compound 0.5 µM): 0.583
relative viability ([9]; first compound 0.005 µM): 0.381
relative viability ([9]; first compound 0.01581 µM): 0.367
relative viability ([9]; first compound 0.05 µM): 0.417
relative viability ([9]; first compound 0.1581 µM): 0.278
relative viability ([9]; first compound 0.5 µM): 0.315
relative viability ([10]; first compound 0.005 µM): 0.499
relative viability ([10]; first compound 0.01581 µM): 0.567
relative viability ([10]; first compound 0.05 µM): 0.636
relative viability ([10]; first compound 0.1581 µM): 0.412
relative viability ([10]; first compound 0.5 µM): 0.494
relative viability ([11]; first compound 0.005 µM): 0.645
relative viability ([11]; first compound 0.01581 µM): 0.669
relative viability ([11]; first compound 0.05 µM): 0.699
relative viability ([11]; first compound 0.1581 µM): 0.538
relative viability ([11]; first compound 0.5 µM): 0.686
relative viability ([12]; first compound 0.005 µM): 0.165
relative viability ([12]; first compound 0.01581 µM): 0.173
relative viability ([12]; first compound 0.05 µM): 0.162
relative viability ([12]; first compound 0.1581 µM): 0.19
relative viability ([12]; first compound 0.5 µM): 0.208
relative viability ([13]; first compound 0.005 µM): 0.279
relative viability ([13]; first compound 0.01581 µM): 0.3
relative viability ([13]; first compound 0.05 µM): 0.3
relative viability ([13]; first compound 0.1581 µM): 0.289
relative viability ([13]; first compound 0.5 µM): 0.272
relative viability ([14]; first compound 0.005 µM): 0.136
relative viability ([14]; first compound 0.01581 µM): 0.165
relative viability ([14]; first compound 0.05 µM): 0.174
relative viability ([14]; first compound 0.1581 µM): 0.141
relative viability ([14]; first compound 0.5 µM): 0.184
relative viability ([15]; first compound 0.005 µM): 0.534
relative viability ([15]; first compound 0.01581 µM): 0.566
relative viability ([15]; first compound 0.05 µM): 0.46
relative viability ([15]; first compound 0.1581 µM): 0.513
relative viability ([15]; first compound 0.5 µM): 0.381
relative viability ([16]; first compound 0.005 µM): 0.431
relative viability ([16]; first compound 0.01581 µM): 0.532
relative viability ([16]; first compound 0.05 µM): 0.551
relative viability ([16]; first compound 0.1581 µM): 0.445
relative viability ([16]; first compound 0.5 µM): 0.524
relative viability ([17]; first compound 0.005 µM): 0.424
relative viability ([17]; first compound 0.01581 µM): 0.536
relative viability ([17]; first compound 0.05 µM): 0.51
relative viability ([17]; first compound 0.1581 µM): 0.366
relative viability ([17]; first compound 0.5 µM): 0.425
relative viability ([18]; first compound 0.005 µM): 0.77
relative viability ([18]; first compound 0.01581 µM): 0.819
relative viability ([18]; first compound 0.05 µM): 0.815
relative viability ([18]; first compound 0.1581 µM): 0.843
relative viability ([18]; first compound 0.5 µM): 0.848
relative viability ([19]; first compound 0.005 µM): 0.934
relative viability ([19]; first compound 0.01581 µM): 1
relative viability ([19]; first compound 0.05 µM): 0.983
relative viability ([19]; first compound 0.1581 µM): 0.812
relative viability ([19]; first compound 0.5 µM): 0.951
relative viability ([20]; first compound 0.005 µM): 0.152
relative viability ([20]; first compound 0.01581 µM): 0.227
relative viability ([20]; first compound 0.05 µM): 0.189
relative viability ([20]; first compound 0.1581 µM): 0.193
relative viability ([20]; first compound 0.5 µM): 0.15
relative viability ([21]; first compound 0.005 µM): 0.731
relative viability ([21]; first compound 0.01581 µM): 0.9
relative viability ([21]; first compound 0.05 µM): 0.836
relative viability ([21]; first compound 0.1581 µM): 0.845
relative viability ([21]; first compound 0.5 µM): 0.74
relative viability ([22]; first compound 0.01581 µM): 0.308
relative viability ([22]; first compound 0.05 µM): 0.294
relative viability ([22]; first compound 0.5 µM): 0.281
